From paper PMC4822341 (Cell Discovery, 2015)
Where “and” joins values, the source holds several entries; their conditions need not be identical. Equal entries are not always repeated.

Key:
PR = target: T1, PR (Homo sapiens, UniProt P06401); assay: PR reporter assay (off-target activity); format: cell-based; details: steroid 1 μM; percent of 1 μM progesterone
T1 construct: expressed in transfected cells; host or cells: AD293
T1 sequence (P06401 1-933): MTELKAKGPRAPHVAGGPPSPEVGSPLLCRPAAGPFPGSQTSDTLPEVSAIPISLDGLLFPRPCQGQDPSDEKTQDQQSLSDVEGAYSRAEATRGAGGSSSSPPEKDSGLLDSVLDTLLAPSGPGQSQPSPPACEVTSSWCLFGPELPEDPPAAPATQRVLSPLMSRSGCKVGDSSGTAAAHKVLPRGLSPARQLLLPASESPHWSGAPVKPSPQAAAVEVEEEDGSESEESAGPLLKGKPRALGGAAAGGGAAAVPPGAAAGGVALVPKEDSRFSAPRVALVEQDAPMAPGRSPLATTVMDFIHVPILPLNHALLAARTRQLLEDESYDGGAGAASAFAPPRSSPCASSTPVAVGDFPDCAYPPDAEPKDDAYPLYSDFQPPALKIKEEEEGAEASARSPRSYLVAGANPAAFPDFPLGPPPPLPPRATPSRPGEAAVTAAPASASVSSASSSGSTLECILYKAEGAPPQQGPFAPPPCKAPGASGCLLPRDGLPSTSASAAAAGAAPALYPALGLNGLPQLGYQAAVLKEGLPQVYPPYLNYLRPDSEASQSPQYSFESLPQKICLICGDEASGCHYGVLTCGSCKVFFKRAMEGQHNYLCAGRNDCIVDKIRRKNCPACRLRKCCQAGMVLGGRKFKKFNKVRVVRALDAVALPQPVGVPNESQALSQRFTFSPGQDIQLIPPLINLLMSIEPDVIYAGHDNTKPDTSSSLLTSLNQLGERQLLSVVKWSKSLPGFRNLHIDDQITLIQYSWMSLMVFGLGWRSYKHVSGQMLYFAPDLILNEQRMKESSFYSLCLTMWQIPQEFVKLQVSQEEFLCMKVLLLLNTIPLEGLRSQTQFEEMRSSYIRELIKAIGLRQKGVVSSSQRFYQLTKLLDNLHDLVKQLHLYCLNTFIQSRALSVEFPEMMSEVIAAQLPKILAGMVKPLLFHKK
Procedure: Similar to previous reports, for induction 100 ng pHHLuc (MMTV-Luc) plasmid, 0.1 ng pRShGR together with 5 ng phRGtkRenilla were transfected by X-tremeGENE 9 (Roche) into AD293 cells per well in 24-well plate. For transrepression, 10 ng AP-1-Luc or 10ng pNF-κB-luc, 100 ng pRShGR and 5 ng phRGtkRenilla were transfected into AD293 cells per well. We used the same transfection protocol for the MR and PR assays, except of the use of 0.1 ng MR or PR plasmid to substitute GR. One day after transfection, for induction, cells were directly treated by steroids for 16 h; for repression, cells were treated with either PMA at 0.6 ng ml^–1 (for AP-1 reporter) or TNFα at 2 ng ml^–1 (for NF-κB reporter), together with various steroids. Cells were collected by addition of 1× Passive Lysis Buffer (Promega, Madison, WI, USA), and luciferase activity was assayed by the Dual-Glo Luciferase system (Promega). Data were plotted as firefly luciferase activity normalized to Renilla luciferase activity in Relative Luciferase Units.

OVA-induced asthma = assay: OVA-induced mouse asthma model; format: in vivo, Balb/c mice; details: for % repression of AHR: ACH challenge 4 mg kg^-1
Procedure: As described before, 7–9-week-old female Balb/c mice (Taconic) were sensitized on days 0, 7 and 14 by i.p. injection of 50 μg OVA/1 mg alum in a total of 200 μl saline. Control mice received an equal volume of alum only. Mice were lightly anesthetized by isoflurane inhalation and challenged with intranasal OVA (100 μg in 30 μl saline) or saline on days 21–23, and were i.p. injected with different steroids. Twenty-four hours after the last challenge and treatment, pulmonary resistance was measured in response to a range of concentrations of intravenous acetylcholine using the forced oscillation technique with the FlexiVent system (SCIREQ) as previously described. Serum samples were analyzed for OVA-specific IgE using an ELISA (BD Biosciences, clone R35-118). Total and differential cell counts were determined by hemocytometer and by light microscopic evaluation of more than 300 cells per slide as previously described. After lavage, lungs were inflated with 10% buffered formalin to 25 cm H2O and transferred to 10% buffered formalin. Sections (5 μm) were stained with H&E for semi-quantitative assessment of inflammation and PAS for evaluation of mucus production. To quantify inflammation, H&E-stained lung sections were de-identified for blinding and scored for peribronchial and perivascular inflammatory cell infiltration: grade 0, no infiltration; grade 1, <25% of examined area; grade 2, 25–50%; grade 3, 51–75%; and grade 4, >75%. To quantify goblet cell hyperplasia, PAS stained lung sections were de-identified for blinding and scored for the percentage of PAS positive cells among airway epithelial cells: grade 0: none; grade 1 <25% of airway epithelial cells; grade 2, 25–50%; grade 3, 51–75%; and grade 4, >75%.

With `CON(C)C(=O)C1(OC(=O)c2ccco2)C(C)CC2C3CC(F)C4=Cc5c(cnn5-c5ccccc5)CC4(C)C3(F)C(O)CC21C` (stereo not drawn) [VSGC12] the PR activity (PR) was “higher activity than VSG22, but a lower activity than MF, FF and FP”, the “% repression of total differentiated cells” value (OVA-induced asthma; 0.0625 mg/kg) was 37% and the “% repression of AHR” value (OVA-induced asthma; 0.0625 mg/kg) was 50%. For the same compound, the “% repression of total differentiated cells” value (OVA-induced asthma; 0.125 mg/kg) was 60%, the “histology score (hematoxylin and eosin and PAS staining)” value (OVA-induced asthma; 0.25 mg kg^-1) was “much lower score than 0.25 mg kg^–1 FF in both hematoxylin and eosin and PAS staining” and the “% repression of total differentiated cells” value (OVA-induced asthma; 0.25 mg/kg) was 88%. The “% repression of AHR” value (OVA-induced asthma; 0.25 mg/kg) was > 95% and 95%, the “infiltration of immune responsive cells into the lungs (total and differential cell count)” value (OVA-induced asthma; 1 mg kg^-1 i.p.) was “strongly repressed the infiltration of immune responsive cells into the lungs” and the “repression of airway hyper-responsiveness (AHR)” value (OVA-induced asthma; 1 mg kg^-1 i.p., Balb/c mice) was “robustly repressed AHR to the basal level”. For the same compound, the “histology score, PAS staining” value (OVA-induced asthma; 1 mg kg^-1 i.p., grade 0-4) was 0.25, the “histology score, hematoxylin and eosin staining” value (OVA-induced asthma; 1 mg kg^-1 i.p., grade 0-4) was “almost zero” and the “% repression of AHR” value (OVA-induced asthma; 1 mg/kg, OVA+DMSO 0, saline 100) was 98%. The “% repression of total differentiated cells” value (OVA-induced asthma; 1 mg/kg, saline 100, OVA+DMSO 0) was 99%, the “minimal dose to effectively repress AHR (minimal effective dose)” value (OVA-induced asthma; AHR repression >50%, i.p.) was 0.0625 mg kg^–1 and the OVA-IgE levels (OVA-induced asthma; lower doses (0.25, 0.125, 0.0625 mg kg^-1)) was “unexpectedly higher than the vehicle control”.
